The record followed here is PubChem BioAssay AID328 (DTP/NCI, 2004).

This assay deals with BDF1 mice, P388 leukemia ip, median survival T/C. Put plainly: NCI In Vivo Anticancer Drug Screen. Data for tumor model P388 Leukemia (intraperitoneal) in B6D2F1 (BDF1) mice. The note with it: endpoint: median survival time, higher = longer survival. In outline:
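Compound-treated tumour-bearing mice were compared with vehicle-treated controls. Survival was recorded, and the value is the treated-group measurement divided by the control-group measurement (T/C).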

The mark [1] stands for this setting: dose: 6.25 mg/kg/injection, schedule: Q01DX009 (ip), vehicle: saline with Tween-80.
[2] abbreviates: dose: 50.0 mg/kg/injection, schedule: Q04DX003 (ip), vehicle: saline with Tween-80.
The mark [3] stands for this setting: dose: 100.0 mg/kg/injection, schedule: Q01DX009 (ip), vehicle: saline with Tween-80.
Where [4] appears, read: dose: 100.0 mg/kg/injection, schedule: Q04DX003 (ip), vehicle: saline with Tween-80.
Where [5] appears, read: dose: 200.0 mg/kg/injection, schedule: Q04DX003 (ip), vehicle: saline with Tween-80.
Where [6] appears, read: dose: 12.5 mg/kg/injection, schedule: Q01DX009 (ip), vehicle: saline with Tween-80.
[7] abbreviates: dose: 25.0 mg/kg/injection, schedule: Q01DX009 (ip), vehicle: saline with Tween-80.
The mark [8] stands for this setting: dose: 50.0 mg/kg/injection, schedule: Q01DX009 (ip), vehicle: saline with Tween-80.
Setting [9] is: dose: 200.0 mg/kg/injection, schedule: Q01DX009 (ip), vehicle: saline with Tween-80.
[10] abbreviates: dose: 25.0 mg/kg/injection, schedule: Q01DX009 (ip), vehicle: saline.
Setting [11] is: dose: 50.0 mg/kg/injection, schedule: Q01DX009 (ip), vehicle: saline.
[12] abbreviates: dose: 50.0 mg/kg/injection, schedule: Q04DX003 (ip), vehicle: saline.
The mark [13] stands for this setting: dose: 100.0 mg/kg/injection, schedule: Q04DX003 (ip), vehicle: saline.
Setting [14] is: dose: 400.0 mg/kg/injection, schedule: Q04DX003 (ip), vehicle: saline with Tween-80.

“And” between values parts separate entries of the source, which are not always exact repeats. Equal entries are not always repeated. Inconclusive results and toxic doses are left out.

For `O=C1c2cccc(O)c2C(=O)c2c(O)cc(CO)cc21`, the T/C runs as follows: (dose: 8.8 mg/kg/injection, schedule: Q01DX010 (ip), vehicle: other) 100 % of control; (dose: 10.0 mg/kg/injection, schedule: Q01DX010 (ip), vehicle: carboxymethylcellulose (CMC)) 122 % of control; (dose: 10.0 mg/kg/injection, schedule: Q01DX010 (ip), vehicle: other) 108 % of control; (dose: 13.0 mg/kg/injection, schedule: Q01DX010 (ip), vehicle: other) 111 % of control; (dose: 16.0 mg/kg/injection, schedule: Q01DX009 (ip), vehicle: gum acacia) 97 % of control; (dose: 20.0 mg/kg/injection, schedule: Q01DX009 (ip), vehicle: gum acacia) 106 % of control. The T/C by setting is: (dose: 20.0 mg/kg/injection, schedule: Q01DX010 (ip), vehicle: carboxymethylcellulose (CMC)) 94 % of control; (dose: 20.0 mg/kg/injection, schedule: Q01DX010 (ip), vehicle: other) 154 % of control; (dose: 25.0 mg/kg/injection, schedule: Q01DX009 (ip), vehicle: gum acacia) 97 % of control; (dose: 40.0 mg/kg/injection, schedule: Q01DX010 (ip), vehicle: carboxymethylcellulose (CMC)) 116 % of control; (dose: 40.0 mg/kg/injection, schedule: Q01DX010 (ip), vehicle: other) 120 % of control; (dose: 80.0 mg/kg/injection, schedule: Q01DX010 (ip), vehicle: carboxymethylcellulose (CMC)) 122 % of control.
With `CC1=CC(=O)c2c(O)cc(C)c(C(=O)C(Cl)Cl)c2C1=O`, the T/C (dose: 10.0 mg/kg/injection, schedule: Q01DX009 (ip), vehicle: Klucel (hydroxypropylcellulose) (HPC)) was 112 % of control and the T/C (dose: 20.0 mg/kg/injection, schedule: Q01DX009 (ip), vehicle: Klucel (hydroxypropylcellulose) (HPC)) was 112 % of control.
`O=C(CBr)N1CCC2(CC1)SSC1(CCN(C(=O)CBr)CC1)S2`: the T/C (dose: 3.12 mg/kg/injection, schedule: Q01DX009 (ip), vehicle: saline with Tween-80) was 112 % of control; the T/C under setting [1] was 95 % of control and 111 % of control; the T/C (dose: 10.0 mg/kg/injection, schedule: Q04DX003 (ip), vehicle: saline with Tween-80) is 122 % of control; the T/C (dose: 20.0 mg/kg/injection, schedule: Q04DX003 (ip), vehicle: saline with Tween-80) was 120 % of control; the T/C (dose: 25.0 mg/kg/injection, schedule: Q04DX003 (ip), vehicle: saline with Tween-80) was 123 % of control; the T/C (dose: 40.0 mg/kg/injection, schedule: Q04DX003 (ip), vehicle: saline with Tween-80) was 114 % of control. In addition, the T/C under setting [2] is 113 % of control, the T/C under setting [3] is 112 % of control, the T/C under setting [4] is 118 % of control and the T/C under setting [5] is 102 % of control.
Consider `CC1=CC(C(O)CC(C)C)C(C)(Cc2ccc(C)cn2)NC1c1ccccc1` (configuration not stated), for which the T/C was 107 % of control under setting [1], 102 % of control under setting [6] and 103 % of control under setting [7].
With `N#CCCN(C(=S)Nc1cccc(C(F)(F)F)c1)C1CCCCC1`, the T/C was 114 % of control and 123 % of control under setting [8]; 110 % of control and 111 % of control under setting [3]; 106 % of control under setting [9].
On to `COCCCNC1=C(Cl)C(=O)c2ccccc2C1=O`, for which the T/C is 106 % of control (dose: 50.0 mg/kg/injection, schedule: Q01DX009 (ip), vehicle: Klucel (hydroxypropylcellulose) (HPC)); 113 % of control (dose: 100.0 mg/kg/injection, schedule: Q01DX009 (ip), vehicle: Klucel (hydroxypropylcellulose) (HPC)); 109 % of control (dose: 200.0 mg/kg/injection, schedule: Q01DX009 (ip), vehicle: Klucel (hydroxypropylcellulose) (HPC)).
Turning to `OC1CSC1`, the T/C by setting is: (dose: 50.0 mg/kg/injection, schedule: Q01DX009 (ip), vehicle: saline + alcohol) 105 % of control; (dose: 100.0 mg/kg/injection, schedule: Q01DX009 (ip), vehicle: saline + alcohol) 100 % of control; (dose: 200.0 mg/kg/injection, schedule: Q01DX009 (ip), vehicle: saline + alcohol) 91 % of control; (dose: 400.0 mg/kg/injection, schedule: Q01DX009 (ip), vehicle: saline + alcohol) 98 % of control.
As to `CCOC(=O)c1ccccc1OP(=O)(N(C)C)N(C)C`, the T/C was 106 % of control under setting [8] and 122 % of control under setting [9].
With `NC(=S)N/N=C/c1ccc(-c2ccccc2)cc1`, the T/C is, setting by setting: under setting [6], 90 % of control; under setting [7], 109 % of control; under setting [8], 86 % of control.
In the case of `NOCc1cccc(CON)c1`, the T/C was 100 % of control (dose: 12.5 mg/kg/injection, schedule: Q01DX009 (ip), vehicle: saline); 87 % of control under setting [10]; 91 % of control under setting [11]; 91 % of control under setting [12]; 91 % of control under setting [13]; 91 % of control (dose: 200.0 mg/kg/injection, schedule: Q04DX003 (ip), vehicle: saline).
Take `Clc1ccc2nnnn2n1`: the T/C (dose: 16.25 mg/kg/injection, schedule: Q01DX009 (ip), vehicle: saline with Tween-80) was 99 % of control; the T/C (dose: 32.5 mg/kg/injection, schedule: Q01DX009 (ip), vehicle: saline with Tween-80) was 101 % of control; the T/C (dose: 40.0 mg/kg/injection, schedule: Q01DX009 (ip), vehicle: saline with Tween-80) was 97 % of control; the T/C (dose: 80.0 mg/kg/injection, schedule: Q01DX009 (ip), vehicle: saline with Tween-80) is 111 % of control; the T/C (dose: 130.0 mg/kg/injection, schedule: Q01DX009 (ip), vehicle: saline with Tween-80) is 151 % of control.
Turning to `O=c1oc2ccccc2c2c1C(c1ccccc1)C=C(c1ccccc1)O2` (configuration not stated), the T/C is, setting by setting: under setting [2], 96 % of control; under setting [4], 91 % of control; under setting [5], 91 % of control; under setting [14], 95 % of control.
With `O=C(O)CSC(CC(=O)O)C(F)(F)C(F)(F)C(F)(F)F` (configuration not stated), the T/C is, setting by setting: under setting [10], 90 % of control; (dose: 25.0 mg/kg/injection, schedule: Q04DX003 (ip), vehicle: saline) 109 % of control; under setting [11], 100 % of control; under setting [12], 109 % of control; (dose: 75.0 mg/kg/injection, schedule: Q01DX009 (ip), vehicle: saline) 110 % of control; (dose: 100.0 mg/kg/injection, schedule: Q01DX009 (ip), vehicle: saline) 95 % of control and 115 % of control. For the same molecule, the T/C under setting [13] was 109 % of control; the T/C (dose: 150.0 mg/kg/injection, schedule: Q01DX009 (ip), vehicle: saline) is 120 % of control; the T/C (dose: 200.0 mg/kg/injection, schedule: Q01DX009 (ip), vehicle: saline) is 120 % of control; the T/C (dose: 300.0 mg/kg/injection, schedule: Q01DX009 (ip), vehicle: saline) was 110 % of control; the T/C (dose: 400.0 mg/kg/injection, schedule: Q04DX003 (ip), vehicle: saline) is 122 % of control.
For the molecule `c1coc(CNc2ncnc3nc[nH]c23)c1`, the T/C is, setting by setting: under setting [3], 95 % of control; under setting [4], 91 % of control; under setting [9], 86 % of control; under setting [5], 95 % of control; (dose: 400.0 mg/kg/injection, schedule: Q01DX009 (ip), vehicle: saline with Tween-80) 100 % of control; under setting [14], 86 % of control.
Regarding `COc1ccc(CCN2COc3ccc4ccc(=O)oc4c3C2)cc1OC`, the T/C runs as follows: (dose: 132.0 mg/kg/injection, schedule: Q01DX009 (ip), vehicle: saline with Tween-80) 100 % of control; under setting [9], 115 % of control; (dose: 300.0 mg/kg/injection, schedule: Q01DX009 (ip), vehicle: saline with Tween-80) 115 % of control.
